Test results: US10010076B2, “Plant control composition containing peptide enhancing agent” (Arch Chemicals, Inc., priority 2013, dated 2018)

Tests used:
Eurasian watermilfoil = Eurasian watermilfoil aquaria trial, biomass 4 weeks after treatment; settings: 8 hr exposure
Anabaena sp. = assay: Toxicity experiment on algae in Morrison Lake site water, cell density of Anabaena sp.; assay type: cell-based
Experimental: (§1) Five formulations were prepared and tested. The formulations included various pesticides used singularly, a protein surfactant blend used singularly, and pesticides used in combination with a protein surfactant blend. The tests were conducted on cyanophyta (blue-green algae) sampled from Morrison Lake located in Ionia County, Mich. The properties that were tested included the chlorophyll-a concentrations, cell densities, visual observations, and partial application label rates of chelated elemental copper and sodium carbonate peroxyhydrate. The initial chlorophyll-a concentration was determined to be 27.4 μg chlorophyll a/L. The initial water characteristics are listed in table 1. […]
(§2) The formulation tested was sodium carbonate peroxyhydrate and the exposure period was 10 days.
(§3) The algae were exposed to three concentrations in 500 mL flasks. The experiments were initiated using 300 mL of site water. The toxicity experiment was initiated by exposing the algae to 7.4, 22.1, and 36.9 mg sodium carbonate peroxyhydrate/L. Three replicates of each exposure concentration, along with three replicates of untreated controls, were tested. […]

[1] = test system: cyanophyta (blue-green algae); assay: Toxicity experiment on algae in Morrison Lake site water (chlorophyll-a, visual observations, total algae cell density); assay type: cell-based
Experimental: as §1, §2, §3

Aphanizomenon sp. = assay: Toxicity experiment on algae in Morrison Lake site water, cell density of Aphanizomenon sp.; assay type: cell-based
Experimental: as §1, §2, §3

Structure (SMILES) | regrowth of Eurasian watermilfoil (Eurasian watermilfoil; 0.1 mg ai/L, 2 WAT) | injury to Eurasian watermilfoil (Eurasian watermilfoil; 0.1 mg ai/L, initial) | reducing Eurasian watermilfoil biomass (Eurasian watermilfoil; 0.2 mg ai/L, 4 WAT) | Avg. Day 4 Cell Density, Anabaena sp. (Anabaena sp.; 7.4 mg/L (20 lbs/acre-ft)) | Avg. Day 10 Cell Density, Anabaena sp. (Anabaena sp.; 7.4 mg/L (20 lbs/acre-ft)) | Avg. Day 4 Cell Density, Anabaena sp. (Anabaena sp.; 22.1 mg/L (60 lbs/acre-ft)) | Avg. Day 4 Chlorophyll-a ([1]; 7.4 mg/L (20 lbs/acre-ft)) [µg/L] | Avg. Day 10 Chlorophyll-a ([1]; 7.4 mg/L (20 lbs/acre-ft)) [µg/L] | Avg. Day 4 Chlorophyll-a ([1]; 22.1 mg/L (60 lbs/acre-ft)) [µg/L] | Avg. Day 10 Cell Density, Total algae ([1]; 22.1 mg/L (60 lbs/acre-ft)) | Avg. Day 10 Chlorophyll-a ([1]; 22.1 mg/L (60 lbs/acre-ft)) [µg/L] | Avg. Day 4 Cell Density, Total algae ([1]; 36.9 mg/L (100 lbs/acre-ft)) | Avg. Day 4 Chlorophyll-a ([1]; 36.9 mg/L (100 lbs/acre-ft)) [µg/L] | Avg. Day 10 Cell Density, Total algae ([1]; 36.9 mg/L (100 lbs/acre-ft)) | Avg. Day 10 Chlorophyll-a ([1]; 36.9 mg/L (100 lbs/acre-ft)) [µg/L] | concentration of sodium carbonate peroxyhydrate needed for algae control ([1]; sodium carbonate peroxyhydrate applied alone) [ppm] | Avg. Day 4 Cell Density, Aphanizomenon sp. (Aphanizomenon sp.; 7.4 mg/L (20 lbs/acre-ft)) | Avg. Day 10 Cell Density, Aphanizomenon sp. (Aphanizomenon sp.; 7.4 mg/L (20 lbs/acre-ft)) | Avg. Day 4 Cell Density, Aphanizomenon sp. (Aphanizomenon sp.; 22.1 mg/L (60 lbs/acre-ft))
CCOC(=O)C(Cl)Cc1cc(-n2nc(C)n(C(F)F)c2=O)c(F)cc1Cl (stereo not shown) [Carfentrazone-ethyl, Ethyl 2-chloro-3-[2-chloro-4-fluoro-5-[4-(difluoromethyl)-4,5-dihydro-3-methyl-5-oxo-1H-1,2,4-trizol-1-yl)phenyl]propanoate] | regrowth was noted | initial injury observed | effective at reducing Eurasian watermilfoil biomass | – | – | – | – | – | – | – | – | – | – | – | – | – | – | – | –
O=C([O-])[O-].O=C([O-])[O-].OO.OO.OO.[Na+].[Na+].[Na+].[Na+] [Sodium Carbonate Peroxyhydrate, sodium carbonate peroxyhydrate] | – | – | – | 8.9 × 10^4 cells/mL | 4.1 × 10^4 cells of/mL | 1.8 × 10^4 cells/mL | 22.5 | 8.6 | 12.5 | <1 × 10^3 cells of/mL | 2.7 | <1 × 10^3 cells/mL | 7.9 | <1 × 10^3 cells of/mL | <2 | 22.7 | 1.1 × 10^3 cells/mL | 2.8 × 10^4 cells of/mL | 6.5 × 10^4 cells/mL
